Biological target: T1, NEDD8 activating enzyme (Homo sapiens, UniProt Q8TBC4)
T1 sequence (Q8TBC4 whole entry): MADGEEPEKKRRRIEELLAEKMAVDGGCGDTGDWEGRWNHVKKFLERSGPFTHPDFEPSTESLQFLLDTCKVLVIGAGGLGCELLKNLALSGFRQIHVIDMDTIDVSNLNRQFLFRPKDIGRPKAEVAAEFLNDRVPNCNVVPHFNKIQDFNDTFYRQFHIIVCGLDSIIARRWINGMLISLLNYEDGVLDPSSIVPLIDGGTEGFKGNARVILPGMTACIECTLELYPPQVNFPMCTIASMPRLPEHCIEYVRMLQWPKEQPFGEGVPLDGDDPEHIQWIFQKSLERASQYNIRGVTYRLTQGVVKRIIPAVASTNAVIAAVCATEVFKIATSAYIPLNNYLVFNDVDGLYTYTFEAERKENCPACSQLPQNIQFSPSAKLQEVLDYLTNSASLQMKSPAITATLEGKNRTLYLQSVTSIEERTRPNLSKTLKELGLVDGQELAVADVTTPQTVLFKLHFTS
T1 sequence (Q13564 whole entry): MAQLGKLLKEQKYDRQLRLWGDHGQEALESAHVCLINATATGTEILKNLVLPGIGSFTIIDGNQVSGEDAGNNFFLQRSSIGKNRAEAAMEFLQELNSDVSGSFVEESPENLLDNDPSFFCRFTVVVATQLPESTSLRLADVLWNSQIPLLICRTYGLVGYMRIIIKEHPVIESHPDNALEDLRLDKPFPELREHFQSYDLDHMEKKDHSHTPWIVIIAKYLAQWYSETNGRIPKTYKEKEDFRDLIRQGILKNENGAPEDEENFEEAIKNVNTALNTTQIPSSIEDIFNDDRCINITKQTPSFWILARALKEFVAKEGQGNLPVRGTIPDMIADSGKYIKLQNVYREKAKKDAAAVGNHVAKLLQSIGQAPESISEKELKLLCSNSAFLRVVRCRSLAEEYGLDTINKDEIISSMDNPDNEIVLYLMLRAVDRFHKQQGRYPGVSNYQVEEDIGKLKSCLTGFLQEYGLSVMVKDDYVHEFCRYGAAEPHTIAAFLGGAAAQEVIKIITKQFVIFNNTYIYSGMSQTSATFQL
Experiment: Inhibition of recombinant human NAEalpha/N-terminal His-tagged NAEbeta expressed in baculovirus infected insect Sf9 cells using N-terminal FLAG tagged Nedd8 as substrate incubated for 105 mins in presence of N-terminal GST-tagged Ubc12 by FRET assay

Structure (SMILES)	IC50
NS(=O)(=O)OC[C@H]1C[C@@H](O)[C@H](Nc2cc(N[C@H]3CCc4ccccc43)ncn2)C1	> 10000 nM
NS(=O)(=O)OC[C@H]1C[C@@H](NC(=O)c2ccncc2)[C@H](O)[C@@H]1O	500 to 10000 nM
CN(Cc1ccccc1)c1cc(N[C@@H]2C[C@H](COS(N)(=O)=O)[C@@H](O)[C@H]2O)ncn1	> 10000 nM
Cn1c(-c2ccccc2)nc2ncnc(N[C@@H]3C[C@@H](COS(N)(=O)=O)[C@@H](O)C3)c21	500 to 10000 nM
NS(=O)(=O)OC[C@H]1C[C@@H](NC(=O)c2ccccn2)[C@H](O)[C@@H]1O	> 10000 nM
CC1(C)C[C@H](Nc2cc(O[C@@H]3C[C@@H](COS(N)(=O)=O)[C@@H](O)C3)ccn2)c2ccc(Cl)cc21	500 to 10000 nM
CN(Cc1ccccc1)c1nccc(N[C@@H]2C[C@H](COS(N)(=O)=O)[C@@H](O)[C@H]2O)n1	> 10000 nM
NS(=O)(=O)OC[C@@H]1C[C@@H](Nc2cc(N[C@H]3CCc4ccccc43)nc(=O)[nH]2)C[C@@H]1O	500 to 10000 nM
Cc1nc(NCc2ccccc2)cc(N[C@@H]2C[C@H](COS(N)(=O)=O)[C@@H](O)[C@H]2O)n1	> 10000 nM
NS(=O)(=O)OC[C@H]1C[C@@H](Nc2ccnc(NCC3CCCCC3)n2)[C@H](O)[C@@H]1O	500 to 10000 nM
Cc1c(N[C@H]2CCc3ccccc32)ncnc1O[C@@H]1C[C@@H](COS(N)(=O)=O)[C@@H](O)C1	> 10000 nM
NS(=O)(=O)OC[C@H]1C[C@@H](NC(=O)c2cccnc2)[C@H](O)[C@@H]1O	500 to 10000 nM
NS(=O)(=O)OC[C@@H]1C[C@@H](Oc2cc(N3CCc4ccccc4C3)ncn2)C[C@@H]1O	> 10000 nM
Cc1nc(N)cc(N[C@@H]2C[C@H](COS(N)(=O)=O)[C@@H](O)[C@H]2O)n1	> 10000 nM
CN(C)C[C@H]1Cc2ccccc2[C@H]1Nc1cc(O[C@@H]2C[C@@H](COS(N)(=O)=O)[C@@H](O)C2)ncn1	500 to 10000 nM
NS(=O)(=O)OC[C@H]1C[C@@H](Nc2cc(NCc3ccccc3)ncn2)[C@H](O)[C@@H]1O	≤ 500 nM

Structure (SMILES)	IC50
NS(=O)(=O)OC[C@@H]1C[C@@H](Nc2ncnc3[nH]c(-c4ccccc4Oc4ccccc4)nc23)C[C@@H]1O	≤ 500 nM
CN(C)C(=O)[C@H]1Cc2ccccc2[C@H]1Nc1cc(O[C@@H]2C[C@@H](COS(N)(=O)=O)[C@@H](O)C2)ncn1	500 to 10000 nM
Cc1nc(N[C@H]2CCc3ccccc32)nc(N[C@@H]2C[C@H](COS(N)(=O)=O)[C@@H](O)[C@H]2O)n1	≤ 500 nM
CC1(C)C[C@H](Nc2ncnc(N[C@@H]3C[C@@H](COS(N)(=O)=O)[C@@H](O)C3)c2F)c2ccccc21	≤ 500 nM
NS(=O)(=O)OC[C@@H]1C[C@@H](Oc2ncnc3nc(-c4ccnc5cc(Cl)ccc45)[nH]c23)C[C@@H]1O	≤ 500 nM
NS(=O)(=O)OC[C@@H]1C[C@@H](Nc2cc(N[C@H]3CCc4ccccc43)ncn2)[C@H](O)[C@@H]1O	≤ 500 nM
NS(=O)(=O)OC[C@@H]1C[C@@H](Nc2ncnc3[nH]c(-c4ccccc4-c4ccccc4)nc23)C[C@@H]1O	500 to 10000 nM
NS(=O)(=O)OC[C@@H]1C[C@@H](Nc2ncnc3[nH]c(-c4cccc5c4oc4ccccc45)nc23)C[C@@H]1O	≤ 500 nM
NS(=O)(=O)OC[C@@H]1C[C@@H](Nc2ncnc3[nH]c(-c4cccc5ccccc45)cc23)C[C@@H]1O	≤ 500 nM
NS(=O)(=O)OC[C@@H]1C[C@@H](Nc2ncnc3[nH]c(-c4ccccc4)cc23)C[C@@H]1O	≤ 500 nM
NS(=O)(=O)OC[C@@H]1C[C@@H](Cc2cc(N[C@H]3CCc4ccccc43)ncn2)C[C@@H]1O	500 to 10000 nM
NS(=O)(=O)OC[C@H]1C[C@@H](Nc2cc(N[C@H]3CCc4c(F)cccc43)ncn2)[C@H](O)[C@@H]1O	≤ 500 nM
NS(=O)(=O)OC[C@@H]1C[C@@H](Nc2ncnc3[nH]c(-c4cccc(Cl)c4)nc23)C[C@@H]1O	≤ 500 nM
NS(=O)(=O)OC[C@H]1C[C@@H](Nc2ccnc(NCc3ccccc3)n2)[C@H](O)[C@@H]1O	500 to 10000 nM
NS(=O)(=O)OC[C@@H]1C[C@@H](Oc2ncnc3[nH]c(-c4ccccc4)nc23)C[C@@H]1O	≤ 500 nM
NS(=O)(=O)OC[C@@H]1C[C@@H](Oc2cc(N[C@H]3CCc4ccccc43)ncn2)C[C@@H]1O	≤ 500 nM

Now from value to compound:

IC50	Structure (SMILES)
≤ 500 nM	NS(=O)(=O)OC[C@H]1C[C@@H](Nc2cc(N[C@H]3CCc4c(F)ccc(F)c43)ncn2)[C@H](O)[C@@H]1O
≤ 500 nM	NS(=O)(=O)OC[C@H]1C[C@@H](Nc2cc(N[C@H]3CCc4cc(Cl)ccc43)ncn2)[C@H](O)[C@@H]1O
≤ 500 nM	NS(=O)(=O)OC[C@@H]1C[C@@H](Nc2c(Cl)cnc3[nH]c(-c4cccc5ccccc45)nc23)C[C@@H]1O
≤ 500 nM	NS(=O)(=O)OC[C@H]1C[C@@H](Nc2cc(N[C@H]3CCc4ccccc43)ncn2)[C@H](O)[C@@H]1O
≤ 500 nM	CC1(C)C[C@H](Nc2cc(N[C@@H]3C[C@@H](COS(N)(=O)=O)[C@@H](O)C3)ncn2)c2ccccc21
≤ 500 nM	CN(C)c1ccc(-c2nc3c(N[C@@H]4C[C@@H](COS(N)(=O)=O)[C@@H](O)C4)ncnc3[nH]2)c2ccccc12
≤ 500 nM	Cc1nc(N[C@H]2CCc3ccccc32)cc(N[C@@H]2C[C@H](COS(N)(=O)=O)[C@@H](O)[C@H]2O)n1
≤ 500 nM	CO[C@H]1Cc2ccccc2[C@H]1Nc1cc(N[C@@H]2C[C@H](COS(N)(=O)=O)[C@@H](O)[C@H]2O)ncn1
≤ 500 nM	NS(=O)(=O)OC[C@@H]1C[C@@H](Nc2ncnc3[nH]c(-c4cccc5c4OCCO5)nc23)C[C@@H]1O
≤ 500 nM	NS(=O)(=O)OC[C@H]1C[C@@H](Nc2ncnc3[nH]cnc23)[C@H](O)[C@@H]1O
≤ 500 nM	NS(=O)(=O)OC[C@H]1C[C@@H](Nc2cc(N[C@H]3CCc4c(Cl)cccc43)ncn2)[C@H](O)[C@@H]1O
≤ 500 nM	CN(c1ncnc2[nH]c(-c3cccc4ccccc34)nc12)[C@@H]1C[C@@H](COS(N)(=O)=O)[C@@H](O)C1
≤ 500 nM	NS(=O)(=O)OC[C@@H]1C[C@@H](Nc2ncnc3[nH]c(-c4ccccc4Cl)nc23)C[C@@H]1O
≤ 500 nM	NS(=O)(=O)OC[C@H]1C[C@@H](Nc2cc(N[C@H]3CCc4ccccc43)ncn2)C[C@@H]1O
≤ 500 nM	NS(=O)(=O)OC[C@@H]1C[C@@H](Nc2ncnc3[nH]c(-c4ccccc4OCc4ccccc4)nc23)C[C@@H]1O
≤ 500 nM	CC1(C)C[C@H](Nc2cc(N[C@@H]3C[C@H](COS(N)(=O)=O)[C@@H](O)[C@H]3O)ncn2)c2ccccc21
≤ 500 nM	NS(=O)(=O)OC[C@@H]1C[C@@H](Oc2cc(N[C@H]3CCCc4ccccc43)ncn2)C[C@@H]1O

IC50	Structure (SMILES)
≤ 500 nM	CO[C@H]1Cc2ccccc2[C@H]1Nc1cc(N[C@@H]2C[C@@H](COS(N)(=O)=O)[C@@H](O)C2)ncn1
≤ 500 nM	NS(=O)(=O)OC[C@H]1C[C@@H](Nc2cc(N[C@H]3CCc4cc(F)c(F)cc43)ncn2)[C@H](O)[C@@H]1O
≤ 500 nM	CC1CC(Nc2nccc(N[C@@H]3C[C@H](COS(N)(=O)=O)[C@@H](O)[C@H]3O)n2)c2ccccc21 (stereo partly specified)
≤ 500 nM	NS(=O)(=O)OC[C@@H]1C[C@@H](Nc2ncnc3[nH]c(-c4ccccc4OC(F)(F)F)nc23)C[C@@H]1O
≤ 500 nM	CC1(C)C[C@H](Nc2nccc(N[C@@H]3C[C@H](COS(N)(=O)=O)[C@@H](O)[C@H]3O)n2)c2ccccc21
≤ 500 nM	NS(=O)(=O)OC[C@H]1C[C@@H](Nc2cc(NCC3CCCCC3)ncn2)[C@H](O)[C@@H]1O
≤ 500 nM	NS(=O)(=O)OC[C@@H]1C[C@@H](Oc2cc(NCc3cccc4ccccc34)ncn2)C[C@@H]1O
≤ 500 nM	NS(=O)(=O)OC[C@H]1C[C@@H](Nc2ncnc3[nH]c(-c4ccccc4)nc23)[C@H](O)[C@@H]1O
≤ 500 nM	NS(=O)(=O)OC[C@H]1C[C@@H](Nc2ncnc(N[C@@H]3CCc4ccccc43)n2)[C@H](O)[C@@H]1O
≤ 500 nM	CO[C@H]1Cc2ccccc2[C@H]1Nc1ncnc(N[C@@H]2C[C@H](COS(N)(=O)=O)[C@@H](O)[C@H]2O)n1
≤ 500 nM	C[C@H]1Cc2ccccc2[C@H]1Nc1cc(O[C@@H]2C[C@@H](COS(N)(=O)=O)[C@@H](O)C2)ncn1
≤ 500 nM	NS(=O)(=O)OC[C@H]1C[C@@H](Nc2cc(N[C@@H]3CCc4ccccc43)ncn2)[C@H](O)[C@@H]1O
≤ 500 nM	NS(=O)(=O)OC[C@@H]1C[C@@H](Nc2ncnc3[nH]c(-c4cccc5ccccc45)nc23)C[C@@H]1O
≤ 500 nM	NS(=O)(=O)OC[C@@H]1C[C@@H](Nc2ncnc3[nH]c(-c4ccccc4)nc23)C[C@@H]1O
≤ 500 nM	NS(=O)(=O)OC[C@@H]1C[C@@H](Nc2cc(N[C@H]3CCc4ccccc43)ncn2)C[C@@H]1O
≤ 500 nM	NS(=O)(=O)OC[C@H]1C[C@@H](Nc2cc(N[C@H]3CCCc4ccccc43)ncn2)[C@H](O)[C@@H]1O
≤ 500 nM	Cc1cccc(-c2nc3c(N[C@@H]4C[C@@H](COS(N)(=O)=O)[C@@H](O)C4)ncnc3[nH]2)c1C

From ChEMBL document CHEMBL3879911, “Heteroaryl compounds useful as inhibitors of E1 activating enzymes” (2008)
